Experimental data published in patent US20250177410A1, “COMBINATION THERAPIES COMPRISING A SOS1 INHIBITOR AND AN EGFR INHIBITOR” (Mirati Therapeutics, Inc., priority 2022, published 2025).
Where two headings read alike, the source gives them in different places.

Tests used:
[1] = system: NCI-H1975 cells harboring EGFR L585R/T790M mutations
Experimental: (§1) Immunocompromised nude/nude mice are inoculated in the right hind flank with NCI-H1975 cells harboring EGFR L585R/T790M mutations. When tumor volumes reach between 200-400 mm^3 in size, the mice are divided into four groups of 4-12 mice each. The first group is administered vehicle only. […] The fourth and fifth groups are administered the single agent dose of the EGFR inhibitor in combination with the single agent dose of the SOS1 inhibitor. The treatment period was 21 days. Tumor volumes are measured using a caliper every two-three days and tumor volumes are calculated by the formula: 0.5×(Length×Width)2.
30 nude/nude mice were inoculated in the right hind limb with 5×10^6 NCI-H1975 cells.

[2] = system: PC9 cells harboring EGFR exon 19del (E746_A750del) mutation
Experimental: as §1, with “NOD/SCID” for “nude/nude”, “PC9” for “NCI-H1975”, “exon 19del (E746_A750del) mutation.” for “L585R/T790M mutations.”, “100-150” for “200-400”, “27” for “21”, “0.5×(Length×Width) 2.” for “0.5×(Length×Width)2.”
30 NOD/SCID mice were inoculated in the right hind limb with 5×10^6 PC9 cells.

[3] = Study Day 3, Osimertinib 2.5 mg/kg QD p.o.
[4] = Study Day 10, Osimertinib 5 mg/kg QD p.o.
[5] = Study Day 21, Osimertinib 5 mg/kg QD p.o.
[6] = Study Day 3, MRTX0902 50 mg/kg p.o.
[7] = Study Day 10, MRTX0902 50 mg/kg p.o.
[8] = Study Day 14, MRTX0902 50 mg/kg p.o.
[9] = Study Day 21, MRTX0902 50 mg/kg p.o.

For `C=CC(=O)Nc1cc(Nc2nccc(-c3cn(C)c4ccccc34)n2)c(OC)cc1N(C)CCN(C)C` [Osimertinib, osimertinib], the “Average Tumor Volume” value ([1]; Study Day 0, Osimertinib 2.5 mg/kg QD p.o.) was 286 mm^3, the “Average Tumor Volume” value ([1]; Study Day 0, Osimertinib 5 mg/kg QD p.o.) was 286 mm^3 and the “Average Tumor Volume” value [1, 3] was 288 mm^3. For the same compound, the “Average Tumor Volume” value ([1]; Study Day 3, Osimertinib 5 mg/kg QD p.o.) was 173 mm^3, the “Average Tumor Volume” value ([1]; Study Day 7, Osimertinib 2.5 mg/kg QD p.o.) was 325 mm^3 and the “Average Tumor Volume” value [1, 4] was 70 mm^3. For the same compound, the “Average Tumor Volume” value ([1]; Study Day 17, Osimertinib 2.5 mg/kg QD p.o.) was 468 mm^3, the “Average Tumor Volume” value ([1]; Study Day 17, Osimertinib 5 mg/kg QD p.o.) was 83 mm^3 and the “Average Tumor Volume” value [1, 5] was 135 mm^3. The tumor growth ([1]; mouse, in vivo) was 89%, the tumor regression ([1]; osimertinib 5 mg/kg single agent, day 17) was −71% and the “Average Tumor Volume” value [2, 3] was 124 mm^3. For the same compound, the “Average Tumor Volume” value ([2]; Study Day 6, Osimertinib 5 mg/kg QD p.o.) was 95 mm^3, the “Average Tumor Volume” value [2, 4] was 69 mm^3 and the “Average Tumor Volume” value ([2]; Study Day 14, Osimertinib 5 mg/kg QD p.o.) was 65 mm^3. The “Average Tumor Volume” value ([2]; Study Day 18, Osimertinib 2.5 mg/kg QD p.o.) was 150 mm^3, the “Average Tumor Volume” value ([2]; Study Day 18, Osimertinib 5 mg/kg QD p.o.) was 60 mm^3 and the “Average Tumor Volume” value [2, 5] was 62 mm^3. For the same compound, the “Average Tumor Volume” value ([2]; Study Day 24, Osimertinib 2.5 mg/kg QD p.o.) was 209 mm^3, the “Average Tumor Volume” value ([2]; Study Day 27, Osimertinib 2.5 mg/kg QD p.o.) was 214 mm^3 and the “Average Tumor Volume” value ([2]; Study Day −1, Osimertinib 2.5 mg/kg QD p.o.) was 108 mm^3. The tumor growth ([2]; mouse, in vivo) was 92.8% and the tumor regression ([2]; osimertinib 5 mg/kg single agent, day 27) was −32.5%.
`Cc1c(C#N)cccc1[C@@H](C)Nc1nnc(C)c2cnc(N3CCOCC3)cc12` [MRTX0902, (R)-2-methyl-3-(1-((4-methyl-7-morpholinopyrido[3,4-d]pyridazin-1-yl)amino)ethyl)benzonitrile] was tested, and the tumor growth inhibition ([1]; MRTX0902 50 mg/kg BID single agent) was 26%, the “Average Tumor Volume” value ([1]; Study Day 0, MRTX0902 50 mg/kg p.o.) was 285 mm^3 and the “Average Tumor Volume” value [1, 6] was 504 mm^3. The “Average Tumor Volume” value ([1]; Study Day 7, MRTX0902 50 mg/kg p.o.) was 808 mm^3, the “Average Tumor Volume” value [1, 7] was 1028 mm^3 and the “Average Tumor Volume” value [1, 8] was 1387 mm^3. For the same compound, the “Average Tumor Volume” value ([1]; Study Day 17, MRTX0902 50 mg/kg p.o.) was 1527 mm^3, the “Average Tumor Volume” value [1, 9] was 1372 mm^3 and the tumor growth inhibition ([2]; MRTX0902 50 mg/kg BID) was 54%. The “Average Tumor Volume” value [2, 6] was 197 mm^3, the “Average Tumor Volume” value ([2]; Study Day 6, MRTX0902 50 mg/kg p.o.) was 247 mm^3 and the “Average Tumor Volume” value [2, 7] was 330 mm^3. The “Average Tumor Volume” value [2, 8] was 442 mm^3, the “Average Tumor Volume” value ([2]; Study Day 18, MRTX0902 50 mg/kg p.o.) was 578 mm^3 and the “Average Tumor Volume” value [2, 9] was 661 mm^3. For the same compound, the “Average Tumor Volume” value ([2]; Study Day 24, MRTX0902 50 mg/kg p.o.) was 755 mm^3, the “Average Tumor Volume” value ([2]; Study Day 27, MRTX0902 50 mg/kg p.o.) was 798 mm^3 and the “Average Tumor Volume” value ([2]; Study Day −1, MRTX0902 50 mg/kg p.o.) was 112 mm^3.
